Measured values: ChEMBL document CHEMBL6092125, “Synthesis and biological evaluation of novel aminoquinolines with an n-octyl linker: Impact of halogen substituents on C(7) or a terminal amino group on anticholinesterase and BACE1 activity” (Bioorg Med Chem Lett, 2024)
Active and inactive are the calls of the source. No cut-off for these calls is given here.

How the values were obtained:
Cholinesterase [1] = biological target: T1, Cholinesterase (Homo sapiens, UniProt P06276); assay: Competitive inhibition of recombinant human BChE by DTNB reagent based Ellman's method
T1 sequence (P06276 whole entry): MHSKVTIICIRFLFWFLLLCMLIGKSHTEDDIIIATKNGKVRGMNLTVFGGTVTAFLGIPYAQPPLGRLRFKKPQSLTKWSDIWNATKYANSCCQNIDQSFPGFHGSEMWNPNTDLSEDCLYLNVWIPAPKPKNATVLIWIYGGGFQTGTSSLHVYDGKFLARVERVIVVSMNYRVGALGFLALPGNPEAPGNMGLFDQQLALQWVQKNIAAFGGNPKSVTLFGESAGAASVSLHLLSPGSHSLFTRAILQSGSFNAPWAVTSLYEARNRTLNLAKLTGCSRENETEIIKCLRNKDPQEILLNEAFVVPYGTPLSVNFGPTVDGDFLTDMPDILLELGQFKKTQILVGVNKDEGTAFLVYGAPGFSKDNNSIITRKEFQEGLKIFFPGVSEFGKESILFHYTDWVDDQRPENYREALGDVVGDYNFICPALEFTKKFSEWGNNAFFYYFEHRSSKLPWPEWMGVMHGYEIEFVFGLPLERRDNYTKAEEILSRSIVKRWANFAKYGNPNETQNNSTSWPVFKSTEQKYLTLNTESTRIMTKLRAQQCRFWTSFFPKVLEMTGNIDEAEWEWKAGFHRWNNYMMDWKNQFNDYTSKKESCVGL

Acetylcholinesterase [2] = biological target: T2, Acetylcholinesterase (Homo sapiens, UniProt P22303); assay: Non-competitive inhibition of recombinant human AChE by DTNB reagent based Ellman's method
T2 sequence (P22303 whole entry): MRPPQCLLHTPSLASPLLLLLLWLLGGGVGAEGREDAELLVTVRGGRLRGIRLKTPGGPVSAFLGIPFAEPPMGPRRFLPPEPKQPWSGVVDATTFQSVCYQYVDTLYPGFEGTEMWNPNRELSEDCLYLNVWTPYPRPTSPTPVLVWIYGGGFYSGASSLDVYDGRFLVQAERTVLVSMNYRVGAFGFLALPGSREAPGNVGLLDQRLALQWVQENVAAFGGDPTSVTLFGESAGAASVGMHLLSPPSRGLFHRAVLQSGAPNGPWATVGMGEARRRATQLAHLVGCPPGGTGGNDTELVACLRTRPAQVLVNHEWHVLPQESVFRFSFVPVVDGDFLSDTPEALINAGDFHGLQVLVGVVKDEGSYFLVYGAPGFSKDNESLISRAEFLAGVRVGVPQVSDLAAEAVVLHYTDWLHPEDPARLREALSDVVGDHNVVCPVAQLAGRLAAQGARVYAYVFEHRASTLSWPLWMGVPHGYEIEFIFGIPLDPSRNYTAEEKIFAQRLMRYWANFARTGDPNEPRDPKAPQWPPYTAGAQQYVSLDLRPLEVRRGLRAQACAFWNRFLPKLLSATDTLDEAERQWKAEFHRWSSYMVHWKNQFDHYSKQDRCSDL

SH-SY5Y = assay: Cytotoxicity against human SH-SY5Y cells incubated for 24 hrs by MTS assay; type: functional, cell-based
Acetylcholinesterase [3] = biological target: T2, Acetylcholinesterase; assay: Mixed type inhibition of recombinant human AChE by DTNB reagent based Ellman's method
HEK293 = assay: Cytotoxicity against HEK293 cells incubated for 24 hrs by MTS assay; type: functional, cell-based; conditions: Homo sapiens
[4] = biological target: Beta-secretase 1 (Homo sapiens) (UniProt P56817); assay: Inhibition of BACE1 (unknown origin) at 1 uM relative to control
Beta-secretase 1 (Homo sapiens), sequence (P56817 whole entry): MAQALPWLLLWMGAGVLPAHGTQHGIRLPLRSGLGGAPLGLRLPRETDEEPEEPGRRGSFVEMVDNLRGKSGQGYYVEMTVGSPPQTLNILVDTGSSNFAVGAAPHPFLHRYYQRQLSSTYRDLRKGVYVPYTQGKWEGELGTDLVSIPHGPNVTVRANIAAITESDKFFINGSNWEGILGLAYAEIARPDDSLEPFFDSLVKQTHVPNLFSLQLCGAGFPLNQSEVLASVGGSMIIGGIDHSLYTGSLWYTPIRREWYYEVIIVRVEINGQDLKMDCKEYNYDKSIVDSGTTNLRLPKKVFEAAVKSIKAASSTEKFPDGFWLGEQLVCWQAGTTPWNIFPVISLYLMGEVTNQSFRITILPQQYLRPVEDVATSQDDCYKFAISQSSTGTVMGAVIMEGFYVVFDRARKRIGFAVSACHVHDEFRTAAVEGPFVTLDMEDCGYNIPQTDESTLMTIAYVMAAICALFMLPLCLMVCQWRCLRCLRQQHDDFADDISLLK

Cholinesterase [5] = biological target: T1, Cholinesterase; assay: Inhibition of recombinant human BChE by DTNB reagent based Ellman's method
Acetylcholinesterase [6] = biological target: T2, Acetylcholinesterase; assay: Inhibition of recombinant human AChE by DTNB reagent based Ellman's method
Cholinesterase [7] = biological target: T1, Cholinesterase; assay: Mixed type inhibition of recombinant human BChE by DTNB reagent based Ellman's method
Acetylcholinesterase [8] = biological target: T2, Acetylcholinesterase; assay: Competitive inhibition of recombinant human AChE by DTNB reagent based Ellman's method
HepG2 = assay: Cytotoxicity against human HepG2 cells incubated for 24 hrs by MTS assay; type: functional, cell-based

Row | Compound | Ki (Cholinesterase [1]) | Activity (SH-SY5Y) | Activity (HEK293) | inhibition [4] | Ki (Cholinesterase [5]) | Ki (Acetylcholinesterase [6]) | further results
1 | CC(C)(C)c1ccc(NCCCCCCCCNc2ccnc3cc(C(F)(F)F)ccc23)cc1 | 71 nM |  |  |  |  |  | Ki (Acetylcholinesterase [2]): 160 nM
2 | FC(F)(F)c1ccc2c(NCCCCCCCCNc3ccccc3Cl)ccnc2c1 | 19 nM | Active | Active |  |  |  | Ki (Acetylcholinesterase [3]): 13 nM
3 | FC(F)(F)c1ccc2c(NCCCCCCCCNc3cc4ccccc4s3)ccnc2c1 | 4.4 nM | Active | Active | > 5.6% |  |  | Ki (Acetylcholinesterase [3]): 70 nM
4 | Fc1cc(C(F)(F)F)ccc1CN(CCCCCCCCNc1ccnc2cc(Cl)ccc12)c1ccc(C(F)(F)F)cc1F |  |  |  |  | 1500 nM | 700 nM | 
5 | FC(F)(F)c1ccc2c(NCCCCCCCCNc3ccccc3)ccnc2c1 |  |  |  | > 5.6% |  |  | Ki (Acetylcholinesterase [2]): 8 nM; Ki (Cholinesterase [7]): 21 nM
6 | FC(F)(F)c1ccc2c(NCCCCCCCCNc3ccncc3)ccnc2c1 | 1300 nM |  |  | > 5.6% |  |  | 
7 | Fc1cc(Br)ccc1CNCCCCCCCCNc1ccnc2cc(Cl)ccc12 |  | Active; Increase In Toxicity Compared To Parent Compound 1 |  |  | 230 nM | 110 nM | 
8 | O=[N+]([O-])c1ccc(NCCCCCCCCNc2ccnc3cc(C(F)(F)F)ccc23)cc1 |  |  |  | > 5.6% |  |  | Ki (Acetylcholinesterase [2]): 140 nM; Ki (Cholinesterase [7]): 36 nM
9 | FC(F)(F)c1ccc2c(NCCCCCCCCNc3ccc(Cl)cc3)ccnc2c1 | 21 nM | Active | Active |  |  |  | Ki (Acetylcholinesterase [8]): 70 nM
10 | Clc1ccc(CNCCCCCCCCNc2ccnc3cc(Cl)ccc23)c(Cl)c1 |  | Active; Increase In Toxicity Compared To Parent Compound 1 |  |  | 180 nM | 36 nM | 
11 | FC(F)(F)c1ccc2c(NCCCCCCCCNC3NCCN3)ccnc2c1 |  |  |  |  |  |  | Ki (Acetylcholinesterase [2]): 200 nM; Ki (Cholinesterase [7]): 190 nM
12 | Fc1ccc(F)c(CNCCCCCCCCNc2ccnc3cc(Cl)ccc23)c1 |  |  |  | > 5.6% | 41 nM | 8.2 nM | 
13 | Fc1ccc(CNCCCCCCCCNc2ccnc3cc(Cl)ccc23)c(F)c1 |  | Active |  |  | 270 nM | 21 nM | 
14 | FC(F)(F)c1ccc2c(NCCCCCCCCNc3cc4ccccc4o3)ccnc2c1 | 49 nM |  |  |  |  |  | Ki (Acetylcholinesterase [8]): 540 nM
15 | Fc1ccc(NCCCCCCCCNc2ccnc3cc(C(F)(F)F)ccc23)cc1 | 6.1 nM |  |  |  |  |  | Ki (Acetylcholinesterase [2]): 12 nM
16 | Fc1ccc(Br)c(CNCCCCCCCCNc2ccnc3cc(Cl)ccc23)c1 |  |  |  |  | 280 nM | 16 nM | 
17 | Fc1cc(C(F)(F)F)ccc1CNCCCCCCCCNc1ccnc2cc(Cl)ccc12 |  | Active; Increase In Toxicity Compared To Parent Compound 1 | Active |  | 1100 nM | 150 nM | 
18 | Fc1ccc(F)c(CN(CCCCCCCCNc2ccnc3cc(Cl)ccc23)c2cc(F)ccc2F)c1 |  |  |  |  | 1300 nM | 260 nM | 
19 | FC(F)(F)c1ccc2c(NCCCCCCCCNc3cccc(Cl)c3)ccnc2c1 |  | Active | Active | > 5.6% |  |  | Ki (Cholinesterase [7]): 5.9 nM; Ki (Acetylcholinesterase [3]): 11 nM
20 | Fc1cccc(NCCCCCCCCNc2ccnc3cc(C(F)(F)F)ccc23)c1 |  | inactive | inactive | > 5.6% |  |  | Ki (Cholinesterase [7]): 6.7 nM; Ki (Acetylcholinesterase [3]): 7.1 nM; Activity (HepG2): inactive
21 | Fc1ccc(Br)cc1CNCCCCCCCCNc1ccnc2cc(Cl)ccc12 |  |  |  |  | 220 nM | 24 nM | 
22 | Cc1cc(F)c(CNCCCCCCCCNc2ccnc3cc(Cl)ccc23)cc1F |  |  | Active |  | 620 nM | 120 nM | 
23 | Fc1cccc(CNCCCCCCCCNc2ccnc3cc(Cl)ccc23)c1 |  |  |  |  | 8.4 nM | 3.2 nM | 
